Data as given in patent US7541374B2, “Malononitrile compounds and use thereof” (Sumitomo Chemical Company, Limited, priority 2004, dated 2009).
Read-outs that look alike come from different tables or passages of the source.

Legend:
Type in all cases: in vivo
[1] = system: Musca domestica; assay: Test Example 3: treated filter paper with sucrose bait, Musca domestica; conditions: 500 ppm, 0.7 ml on filter paper; ten female Musca domestica imagoes; after 24 hours; read-out: rate of dead pests
Protocol: (§1) The formulation obtained according to Formulation Example 5 using the compound of the present invention (2), (3), (4), (6), (7), (8), (11), (12), (13), (15), (16), (19), (20), (21), (22), (28), (29), (30), (31), (32), (33), (34), (36), (37), (38) and (39) respectively, was diluted with water so that the active ingredient concentration came to 500 ppm to prepare a pesticidal solution for test.
(§2) On the bottom of a polyethylene cup having a diameter of 5.5 cm, a filter paper having the same diameter was laid, and 0.7 ml of the above pesticidal solution for test was added dropwise on the filter paper, followed by putting 30 mg of sucrose on it uniformly as a bait. Ten female Musca domestica imagoes were set free in the polyethylene cup and covered it with a lid. After 24 hours, the number of surviving and dead Musca domestica was examined and the rate of dead pests was calculated.

[2] = system: Blattella germanica; assay: Test Example 4: treated filter paper with sucrose bait, Blattella germanica; conditions: 144 h; 500 ppm, 0.7 ml on filter paper; two male Blattella germanica imagoes; after 6 days; read-out: rate of dead pests
Protocol: as §1, with “(8), (9),” for “(8),”, “(16), (18),” for “(16),”, “(22), (27),” for “(22),”, “(34), (35),” for “(34),”, “(38), (43)” for “(38)”, “[…]” for “(39)”
as §2, with “Two male Blattella germanica” for “Ten female Musca domestica”, “6 days,” for “24 hours,”, “Blattella germanica” for “Musca domestica”

[3] = system: Culex pipiens pallens; assay: Test Example 5: larvae in treated water, Culex pipiens pallens; conditions: 24 h, read-out: rate of dead pests
Protocol: The formulation obtained according to Formulation Example 5 using the compound of the present invention (1), (2), (3), (4), (5), (6), (7), (8), (9), (10), (11), (12), (13), (14), (15), (16), (17), (18), (19), (20), (21), (22), (23), (25), (27), (28), (29), […], (31), (32), (33), (34), (35), (36), (37), (38), (39), (41), (44), (45), (46), (47) and (48) respectively, was diluted with water so that the active ingredient concentration came to 500 ppm to prepare a pesticidal solution for test.
0.7 ml of above pesticidal solution for test was added to 100 ml of ion exchanged water (active ingredient concentration: 3.5 ppm). Twenty last-instar larvae of Culex pipiens pallens were set free in the solution. After one day, the number of surviving and dead Culex pipiens pallens was examined and the rate of dead pests was calculated.

[4] = active ingredient concentration 3.5 ppm in water, twenty last-instar larvae of Culex pipiens pallens, after one day

SMILES	pest or weed control at 500 ppm [1] [%]	pest or weed control at 500 ppm [2] [%]	pest or weed control at 3.5 ppm [3, 4] [%]	pest or weed control at 3.5 ppm ([3]; Culex pipiens) [%]
C=CCC(C#N)(C#N)Cn1ccc(C(C)(C)C)n1 [compound of the present invention (4), allyl [(3-t-butyl-1H-pyrazole-1-yl)methyl]malononitrile]	≥ 90	100	≥ 95	–
N#CC(C#N)(CCC(F)(F)F)Cn1cnc(C(F)(F)F)n1 [compound of the present invention (33), {[3-(trifluoromethyl)-1H-1,2,4-triazole-1-yl]methyl}(3,3,3-trifluoropropyl)malononitrile]	≥ 90	100	≥ 95	–
Cc1cc(C)n(CC(C#N)(C#N)CCC(F)(F)F)n1 [compound of the present invention (17)]	–	–	≥ 95	–
N#CC(C#N)(CCC(F)(F)F)Cn1cc(Br)c(C(F)(F)F)n1 [compound of the present invention (15), [(4-bromo-3-trifluoromethyl-1H-pyrazole-1-yl)methyl](3,3,3-trifluoropropyl) malononitrile]	≥ 90	100	≥ 95	–
CC(C)c1nn(CC(C#N)(C#N)CCC(F)(F)F)cc1Br [compound of the present invention (11), [(4-bromo-3-i-propyl-1H-pyrazole-1-yl)methyl] (3,3,3-trifluoropropyl) malononitrile]	≥ 90	100	≥ 95	–
CC(C)(C)c1nn(CC(C#N)(C#N)CCC(F)(F)F)cc1Br [compound of the present invention (12), [(4-bromo-3-t-butyl-1H-pyrazole-1-yl)methyl](3,3,3-trifluoropropyl) malononitrile]	≥ 90	100	≥ 95	–
CC(C)c1ncn(CC(C#N)(C#N)CCC(F)(F)F)n1 [compound of the present invention (28), [(3-i-propyl-1H-1,2,4-triazole-1-yl)methyl](3,3,3-trifluoropropyl) malononitrile]	≥ 90	100	≥ 95	–
C=CCC(C#N)(C#N)Cn1ccc(C(F)(F)F)n1 [compound of the present invention (7), allyl {[3-(trifluoromethyl)-1H-pyrazole-1-yl]methyl}malononitrile]	≥ 90	100	≥ 95	–
COC(=O)c1cnn(CC(C#N)(C#N)CCC(F)(F)F)c1 [compound of the present invention (23), [{4-(methoxycarbonyl)-1H-pyrazole-1-yl}methyl](3,3,3-trifluoropropyl) malononitrile]	–	–	≥ 95	–
CC1(C)CCc2cn(CC(C#N)(C#N)CCC(F)(F)F)nc21 [compound of the present invention (5), [(6,6-dimethyl-5,6-dihydro-cyclopenta[c]pyrazole-2(4H)-yl)methyl](3,3,3-trifluoropropyl) malononitrile]	–	–	≥ 95	–
C=CCC(C#N)(C#N)Cn1cnc(C(F)(F)C(F)(F)F)n1 [compound of the present invention (35), allyl {[3-(pentafluoroethyl)-1H-1,2,4-triazole 1-yl]methyl}malononitrile]	–	100	≥ 95	–
N#CC(C#N)(CCC(F)(F)F)Cn1cc(C(=O)C(F)(F)F)c2ccccc21 [compound of the present invention (41), [{3-(trifluoroacetyl)-1H-indole-1-yl}methyl](3,3,3-trifluoropropyl) malononitrile]	–	–	–	≥ 95
CCOC(=O)c1cn(CC(C#N)(C#N)CCC(F)(F)F)cc1C(F)(F)F [compound of the present invention (47), [(3-ethoxycarbonyl-4-trifluoromethyl-1H-pyrole-1-yl)methyl](3,3,3-trifluoropropyl)malononitrile]	–	–	≥ 95	–
C=CCC(C#N)(C#N)Cn1cc(Br)c(C(C)(C)C)n1 [compound of the present invention (14), allyl [(4-bromo-3-t-butyl-1H-pyrazole-1-yl)methyl]malononitrile]	–	–	≥ 95	–
N#CC(C#N)(CCC(F)(F)F)Cn1cc(SC(F)(Cl)Cl)cn1 [compound of the present invention (43), [(4-{(dichlorofluoromethyl)thio}-1H-pyrazole-1-yl)methyl](3,3,3-trifluoropropyl)malononitrile]	–	100	–	–
N#CC(C#N)(CCC(F)(F)F)Cn1cncn1 [compound of the present invention (27), [(1H-1,2,4-triazole-1-yl)methyl](3,3,3-trifluoropropyl) malononitrile]	–	100	≥ 95	–
CCOC(=O)c1cn(CC(C#N)(C#N)CCC(F)(F)F)nc1C(F)(F)F [compound of the present invention (25), {[4-ethoxycarbonyl-3-(trifluoromethyl)-pyrazole-1H-yl]methyl}(3,3,3-trifluoropropyl) malononitrile]	–	–	≥ 95	–
N#Cc1cn(CC(C#N)(C#N)CCC(F)(F)F)cc1C(F)(F)F [compound of the present invention (46), [(3-cyano-4-trifluoromethyl-1H-pyrole-1-yl)methyl](3,3,3-trifluoropropyl) malononitrile]	–	–	≥ 95	–
Cc1cnn(CC(C#N)(C#N)CCC(F)(F)F)c1 [compound of the present invention (18)]	–	100	≥ 95	–
CCC(C)(C)c1ncn(CC(C#N)(C#N)CCC(F)(F)F)n1 [compound of the present invention (30), {[3-(1,1-dimethylpropyl)-1H-1,2,4-triazole-1-yl]methyl}(3,3,3-trifluoropropyl) malononitrile]	≥ 90	100	–	–
N#Cc1ccn(CC(C#N)(C#N)CCC(F)(F)F)n1 [compound of the present invention (9), [(3-cyano-1H-pyrazole-1-yl)methyl](3,3,3-trifluoropropyl) malononitrile]	–	100	≥ 95	–
N#CC(C#N)(CCC(F)(F)F)Cn1ccc(-c2ccccc2)n1 [compound of the present invention (10), [(3-phenyl-1H-pyrazole-1-yl)methyl](3,3,3-trifluoropropyl)malononitrile]	–	–	≥ 95	–
N#Cc1ccn(CC(C#N)(C#N)CCC(F)(F)F)c1 [compound of the present invention (48), [(3-cyano-1H-pyrole-1-yl)methyl] (3,3,3-trifluoropropyl) malononitrile]	–	–	≥ 95	–
N#CC(C#N)(CCC(F)(F)F)Cn1cc(SC(F)(Cl)Cl)c2ccccc21 [compound of the present invention (44), [(3-{[dichlorofluoromethyl]thio}-1H-indole-1-yl)methyl](3,3,3-trifluoropropyl) malononitrile]	–	–	≥ 95	–
N#CC(C#N)(CCC(F)(F)F)Cn1cccn1 [compound of the present invention (1), (1H-pyrazole-1-yl methyl) (3,3,3-trifluoropropyl) malononitrile]	–	–	≥ 95	–
N#Cc1cn(CC(C#N)(C#N)CCC(F)(F)F)c2ccccc12 [compound of the present invention (39), [{3-cyano-1H-indole-1-yl}methyl] (3,3,3-trifluoropropyl) malononitrile]	≥ 90	–	≥ 95	–
